Experiment [1] addresses T1, Tyrosine-protein kinase JAK2 (Homo sapiens, UniProt O60674). Description: Inhibition of recombinant human JAK2 (808 to end residues) using biotinylated TK substrate in presence of [33P]ATP.
Experiment [2] in a line: Inhibition of JAK/STAT signaling pathway in human CD14 positive monocytes assessed as inhibition of IL-6 stimulated STAT3 phosphorylation at Y705 residue preincubated for 1 hr followed by IL-6 stimulation and measured after 15 mins by flow cytometry analysis. Format: cell-based.
In experiment [3] the target is Tyrosine-protein kinase ITK/TSK (Homo sapiens, UniProt Q08881). Put plainly: Inhibition of ITK (unknown origin).
The target in experiment [4] is Serine/threonine-protein kinase Chk1 (Homo sapiens, UniProt O14757). Put plainly: Inhibition of CHK1 (unknown origin).
A short description of experiment [5]: Inhibition of JAK/STAT signaling pathway in human CD14 positive monocytes assessed as inhibition of GM-CSF stimulated STAT5 phosphorylation at Y694 residue preincubated for 1 hr followed by GM-CSF stimulation and measured after 15 mins by flow cytometry analysis. Format: cell-based. (In flow cytometry, cells or beads pass a laser one at a time.)
Experiment [6] has as its target Vascular endothelial growth factor receptor 3 (Homo sapiens, UniProt P35916). Description: Inhibition of FLT4 (unknown origin).
A short description of experiment [7]: Inhibition of JAK/STAT signaling pathway in human CD19 positive B cells assessed as inhibition of IL-4 stimulated STAT6 phosphorylation at Y641 residue preincubated for 1 hr followed by IL-4 stimulation and measured after 15 mins by flow cytometry analysis. Format: cell-based. The following applies: CD19 positive B cell.
Experiment [8] deals with Serine/threonine-protein kinase MARK1 (Homo sapiens, UniProt Q9P0L2). Description: Inhibition of MARK1 (unknown origin).
Experiment [9] in a line: Inhibition of JAK/STAT signaling pathway in human CD4+ve Th cells assessed as inhibition of IL-2 stimulated STAT5 phosphorylation at Y694 residue preincubated for 1 hr followed by IL-2 stimulation and measured after 15 mins by flow cytometry analysis. The class given is cell-based.
The target in experiment [10] is Macrophage colony-stimulating factor 1 receptor (Homo sapiens, UniProt P07333). Put plainly: Inhibition of FMS (unknown origin).
Experiment [11] addresses Mitogen-activated protein kinase kinase kinase 9 (Homo sapiens, UniProt P80192). Description: Inhibition of MLK1 (unknown origin).
A short description of experiment [12]: Cytotoxicity against human CLL cells assessed inhibition of cell growth incubated for 72 hrs by propidium iodide staining based flow cytometry analysis. The class given is functional.
The target in experiment [13] is Mitogen-activated protein kinase kinase kinase kinase 2 (Homo sapiens, UniProt Q12851). Description: Inhibition of GCK (unknown origin).
The nature of experiment [14]: Inhibition of JAK/STAT signaling pathway in human CD8-positive T cells assessed as inhibition of IL-4 stimulated STAT6 phosphorylation at Y641 residue preincubated for 1 hr followed by IL-4 stimulation and measured after 15 mins by flow cytometry analysis. The following applies: CD8-positive T cell. The class given is cell-based.
A short description of experiment [15]: Inhibition of JAK/STAT signaling pathway in human CD4+ve Th cells assessed as inhibition of IL-4 stimulated STAT6 phosphorylation at Y641 residue preincubated for 1 hr followed by IL-4 stimulation and measured after 15 mins by flow cytometry analysis. The class given is cell-based.
In experiment [16] the target is Ribosomal protein S6 kinase alpha-6 (Homo sapiens, UniProt Q9UK32). Put plainly: Inhibition of RSK4 (unknown origin).
Experiment [17] concerns the target Ribosomal protein S6 kinase alpha-3 (Homo sapiens, UniProt P51812). Description: Inhibition of RSK2 (unknown origin).
A short description of experiment [18]: Inhibition of JAK/STAT signaling pathway in human CD8-positive T cells assessed as inhibition of IL-2 stimulated STAT5 phosphorylation at Y694 residue preincubated for 1 hr followed by IL-2 stimulation and measured after 15 mins by flow cytometry analysis. The following applies: CD8-positive T cell. Format: cell-based.
Experiment [19] can be described thus: Inhibition of JAK/STAT signaling pathway in human CD14 positive monocytes assessed as inhibition of IL-4 stimulated STAT6 phosphorylation at Y641 residue preincubated for 1 hr followed by IL-4 stimulation and measured after 15 mins by flow cytometry analysis. The class given is cell-based.
Experiment [20] addresses Serine/threonine-protein kinase MARK2 (Homo sapiens, UniProt Q7KZI7). Description: Inhibition of PAR1B-a (unknown origin).
For experiment [21], the target named is Serine/threonine-protein kinase 3 (Homo sapiens, UniProt Q13188). Put plainly: Inhibition of MST2 (unknown origin).
In experiment [22] the target is T2, Receptor-type tyrosine-protein kinase FLT3 (Homo sapiens, UniProt P36888).
T2 sequence (P36888 whole entry): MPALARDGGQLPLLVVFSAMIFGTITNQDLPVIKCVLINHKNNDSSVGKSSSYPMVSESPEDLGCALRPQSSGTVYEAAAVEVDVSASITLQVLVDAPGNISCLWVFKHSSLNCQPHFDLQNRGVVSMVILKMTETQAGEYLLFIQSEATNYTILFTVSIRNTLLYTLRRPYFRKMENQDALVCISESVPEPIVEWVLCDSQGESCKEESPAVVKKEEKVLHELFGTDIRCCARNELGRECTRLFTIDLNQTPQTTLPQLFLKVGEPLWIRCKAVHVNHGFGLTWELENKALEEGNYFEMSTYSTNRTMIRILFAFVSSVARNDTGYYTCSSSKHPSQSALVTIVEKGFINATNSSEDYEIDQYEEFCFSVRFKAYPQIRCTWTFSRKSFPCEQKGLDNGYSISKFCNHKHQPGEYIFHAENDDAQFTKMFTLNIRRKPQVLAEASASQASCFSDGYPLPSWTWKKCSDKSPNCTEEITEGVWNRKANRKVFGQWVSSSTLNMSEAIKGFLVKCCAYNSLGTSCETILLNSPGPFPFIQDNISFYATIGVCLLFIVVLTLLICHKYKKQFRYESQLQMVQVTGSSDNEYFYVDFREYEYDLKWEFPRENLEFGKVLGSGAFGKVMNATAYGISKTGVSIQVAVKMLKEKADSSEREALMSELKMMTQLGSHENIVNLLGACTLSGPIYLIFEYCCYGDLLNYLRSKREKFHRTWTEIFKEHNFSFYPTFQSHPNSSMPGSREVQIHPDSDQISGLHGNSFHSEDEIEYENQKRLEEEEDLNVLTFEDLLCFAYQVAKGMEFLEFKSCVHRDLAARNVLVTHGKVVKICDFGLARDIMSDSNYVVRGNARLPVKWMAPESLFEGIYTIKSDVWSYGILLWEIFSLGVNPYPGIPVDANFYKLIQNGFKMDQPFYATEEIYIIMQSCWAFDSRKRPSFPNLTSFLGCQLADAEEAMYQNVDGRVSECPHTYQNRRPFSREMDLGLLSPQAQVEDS

Experiment [23] concerns the target Proto-oncogene tyrosine-protein kinase receptor Ret (Homo sapiens, UniProt P07949). Put plainly: Inhibition of RET (unknown origin).
For experiment [24], the target named is Tyrosine-protein kinase JAK1 (Homo sapiens, UniProt P23458). Put plainly: Inhibition of JAK1 (unknown origin) by flow cytometry analysis.
The target in experiment [25] is Non-receptor tyrosine-protein kinase TYK2 (Homo sapiens, UniProt P29597). Put plainly: Inhibition of TYK2 (unknown origin) by flow cytometry analysis.
The target of experiment [26] is Tyrosine-protein kinase SYK (Homo sapiens, UniProt P43405). Description: Inhibition of SYK (unknown origin) by flow cytometry analysis.
For experiment [27], the target named is T1, Tyrosine-protein kinase JAK2. Put plainly: Inhibition of JAK2 (unknown origin) by flow cytometry analysis.
Experiment [28] addresses Tyrosine-protein kinase JAK3 (Homo sapiens, UniProt P52333). Description: Inhibition of JAK3 (unknown origin) by flow cytometry analysis.
The subject of experiment [29] is BaF3. Put plainly: Antitumor activity against mouse BaF3 cells harboring JAK2 V617F mutant implanted in BALB/c mouse model assessed as normalization rate of liver weight at 150 mg/kg, po qd administered from day 4 post infection and measured after 14 days relative to control. The class given is functional. The following applies: time 10 day.
The test system of another experiment is MOLM-13. Description: Antitumor activity against human MOLM-13 cells xenografted mouse model assessed as tumor growth inhibition at 150 mg/kg administered for 7 days relative to control. The class given is functional. To be noted: MOLM-13, 168 h, time 7 day, read-out: TGI. (Xenograft models place foreign cells or tissue in a host animal.)
The test system of experiment [30] is BaF3. Put plainly: Antitumor activity against mouse BaF3 cells harboring JAK2 V617F mutant implanted in BALB/c mouse model assessed as normalization rate of spleen weight at 150 mg/kg, po qd administered from day 4 post infection and measured after 14 days relative to control. The class given is functional. The following applies: time 10 day.
The target of experiment [31] is Tyrosine-protein kinase Tec (Homo sapiens, UniProt P42680). Description: Inhibition of TEC (unknown origin) in presence of ATP.
For another experiment, the system named is MV4-11. Description: Antitumor activity against human MV4-11 cells harboring FLT3 […] mutant xenografted acute myeloid leukemia BALB/c mouse model assessed as tumor growth inhibition at 40 mg/kg, po qd administered daily for 21 days relative to control. Format: functional. The following applies: MV4-11, 504 h, time 21 day, read-out: TGI.

T1 sequence (O60674 whole entry): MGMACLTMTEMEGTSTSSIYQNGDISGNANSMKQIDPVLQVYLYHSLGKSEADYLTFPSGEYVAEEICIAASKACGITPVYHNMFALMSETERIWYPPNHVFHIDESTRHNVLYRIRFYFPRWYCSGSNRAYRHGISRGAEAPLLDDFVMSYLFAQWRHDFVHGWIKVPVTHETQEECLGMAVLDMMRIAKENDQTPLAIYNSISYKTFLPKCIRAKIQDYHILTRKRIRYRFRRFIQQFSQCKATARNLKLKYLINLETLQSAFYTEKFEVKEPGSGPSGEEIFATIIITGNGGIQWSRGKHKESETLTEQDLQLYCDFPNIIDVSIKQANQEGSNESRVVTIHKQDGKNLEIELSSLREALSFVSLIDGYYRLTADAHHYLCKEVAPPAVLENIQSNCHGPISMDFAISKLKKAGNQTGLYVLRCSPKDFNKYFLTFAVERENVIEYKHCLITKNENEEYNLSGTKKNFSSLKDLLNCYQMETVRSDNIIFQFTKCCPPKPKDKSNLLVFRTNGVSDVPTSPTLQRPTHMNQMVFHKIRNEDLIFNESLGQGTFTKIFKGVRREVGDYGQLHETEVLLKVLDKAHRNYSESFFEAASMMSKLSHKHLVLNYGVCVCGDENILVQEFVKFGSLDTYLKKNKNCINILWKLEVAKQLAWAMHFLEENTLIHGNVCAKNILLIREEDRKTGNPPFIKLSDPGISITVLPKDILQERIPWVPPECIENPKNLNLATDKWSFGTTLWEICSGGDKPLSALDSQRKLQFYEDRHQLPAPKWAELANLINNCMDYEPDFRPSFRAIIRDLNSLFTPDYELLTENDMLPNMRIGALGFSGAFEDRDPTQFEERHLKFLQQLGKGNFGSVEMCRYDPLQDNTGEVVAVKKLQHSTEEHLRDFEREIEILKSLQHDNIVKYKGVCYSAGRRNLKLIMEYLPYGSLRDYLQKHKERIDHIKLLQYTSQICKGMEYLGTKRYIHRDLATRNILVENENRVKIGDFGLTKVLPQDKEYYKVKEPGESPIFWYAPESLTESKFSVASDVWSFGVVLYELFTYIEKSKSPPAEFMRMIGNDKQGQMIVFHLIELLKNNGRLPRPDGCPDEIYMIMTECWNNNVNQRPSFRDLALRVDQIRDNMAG
Tyrosine-protein kinase JAK1, sequence (P23458 whole entry): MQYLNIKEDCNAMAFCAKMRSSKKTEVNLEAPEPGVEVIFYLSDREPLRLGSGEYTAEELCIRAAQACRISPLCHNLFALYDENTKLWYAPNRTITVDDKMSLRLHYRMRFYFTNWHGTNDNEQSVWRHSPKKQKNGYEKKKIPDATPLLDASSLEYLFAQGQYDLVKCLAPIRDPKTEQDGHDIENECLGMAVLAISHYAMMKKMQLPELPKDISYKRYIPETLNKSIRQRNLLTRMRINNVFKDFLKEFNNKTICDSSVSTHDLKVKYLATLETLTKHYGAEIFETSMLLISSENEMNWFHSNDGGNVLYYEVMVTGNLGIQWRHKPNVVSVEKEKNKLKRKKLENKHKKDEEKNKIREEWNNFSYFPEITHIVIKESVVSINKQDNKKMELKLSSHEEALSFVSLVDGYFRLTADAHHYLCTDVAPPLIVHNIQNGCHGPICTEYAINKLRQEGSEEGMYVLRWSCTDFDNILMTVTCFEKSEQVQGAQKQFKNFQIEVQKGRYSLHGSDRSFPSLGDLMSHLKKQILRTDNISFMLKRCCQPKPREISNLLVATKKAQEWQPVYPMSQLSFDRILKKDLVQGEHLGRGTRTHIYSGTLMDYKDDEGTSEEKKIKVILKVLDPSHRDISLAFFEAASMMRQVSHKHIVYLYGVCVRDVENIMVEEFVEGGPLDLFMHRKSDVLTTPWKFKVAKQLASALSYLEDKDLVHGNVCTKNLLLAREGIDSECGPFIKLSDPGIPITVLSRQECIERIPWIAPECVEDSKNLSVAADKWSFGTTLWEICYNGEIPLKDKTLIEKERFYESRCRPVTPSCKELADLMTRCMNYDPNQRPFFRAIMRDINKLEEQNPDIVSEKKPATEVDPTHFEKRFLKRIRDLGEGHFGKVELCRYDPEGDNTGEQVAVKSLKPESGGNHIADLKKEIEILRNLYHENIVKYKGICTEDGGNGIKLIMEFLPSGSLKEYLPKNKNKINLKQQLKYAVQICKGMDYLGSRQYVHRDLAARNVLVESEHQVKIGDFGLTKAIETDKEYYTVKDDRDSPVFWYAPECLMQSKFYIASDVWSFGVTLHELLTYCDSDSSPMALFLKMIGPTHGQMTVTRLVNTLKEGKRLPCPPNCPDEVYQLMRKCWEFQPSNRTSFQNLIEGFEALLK
Tyrosine-protein kinase ITK/TSK, sequence (Q08881 whole entry): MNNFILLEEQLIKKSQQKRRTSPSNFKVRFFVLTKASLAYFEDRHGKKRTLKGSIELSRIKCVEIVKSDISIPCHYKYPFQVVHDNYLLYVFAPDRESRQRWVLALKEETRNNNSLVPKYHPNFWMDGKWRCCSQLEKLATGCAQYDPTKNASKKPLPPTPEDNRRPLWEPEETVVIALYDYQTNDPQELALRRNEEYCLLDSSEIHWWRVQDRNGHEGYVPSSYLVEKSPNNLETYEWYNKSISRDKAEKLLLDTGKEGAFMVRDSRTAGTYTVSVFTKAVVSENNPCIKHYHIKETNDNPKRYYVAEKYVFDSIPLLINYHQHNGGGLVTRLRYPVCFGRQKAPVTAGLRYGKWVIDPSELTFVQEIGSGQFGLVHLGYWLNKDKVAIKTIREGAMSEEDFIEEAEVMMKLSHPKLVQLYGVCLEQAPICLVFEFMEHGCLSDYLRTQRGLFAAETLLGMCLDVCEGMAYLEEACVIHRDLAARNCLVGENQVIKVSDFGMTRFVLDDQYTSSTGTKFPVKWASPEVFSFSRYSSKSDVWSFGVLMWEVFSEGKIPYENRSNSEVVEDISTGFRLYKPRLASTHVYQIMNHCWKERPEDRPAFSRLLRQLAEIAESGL
Serine/threonine-protein kinase Chk1, sequence (O14757 whole entry): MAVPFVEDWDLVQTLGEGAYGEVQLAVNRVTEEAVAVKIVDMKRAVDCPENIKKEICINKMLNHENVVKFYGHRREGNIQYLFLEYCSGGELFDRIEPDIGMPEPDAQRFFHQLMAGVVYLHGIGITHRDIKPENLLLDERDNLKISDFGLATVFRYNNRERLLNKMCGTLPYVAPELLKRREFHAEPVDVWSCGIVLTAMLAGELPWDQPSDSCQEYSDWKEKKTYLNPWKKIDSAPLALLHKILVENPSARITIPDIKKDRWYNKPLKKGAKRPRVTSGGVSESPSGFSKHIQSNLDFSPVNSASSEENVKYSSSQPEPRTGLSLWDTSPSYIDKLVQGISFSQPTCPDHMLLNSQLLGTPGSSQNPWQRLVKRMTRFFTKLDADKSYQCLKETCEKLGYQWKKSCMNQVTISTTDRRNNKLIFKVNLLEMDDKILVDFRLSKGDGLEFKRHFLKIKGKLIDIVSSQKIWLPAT
Proto-oncogene tyrosine-protein kinase receptor Ret, sequence (P07949 whole entry): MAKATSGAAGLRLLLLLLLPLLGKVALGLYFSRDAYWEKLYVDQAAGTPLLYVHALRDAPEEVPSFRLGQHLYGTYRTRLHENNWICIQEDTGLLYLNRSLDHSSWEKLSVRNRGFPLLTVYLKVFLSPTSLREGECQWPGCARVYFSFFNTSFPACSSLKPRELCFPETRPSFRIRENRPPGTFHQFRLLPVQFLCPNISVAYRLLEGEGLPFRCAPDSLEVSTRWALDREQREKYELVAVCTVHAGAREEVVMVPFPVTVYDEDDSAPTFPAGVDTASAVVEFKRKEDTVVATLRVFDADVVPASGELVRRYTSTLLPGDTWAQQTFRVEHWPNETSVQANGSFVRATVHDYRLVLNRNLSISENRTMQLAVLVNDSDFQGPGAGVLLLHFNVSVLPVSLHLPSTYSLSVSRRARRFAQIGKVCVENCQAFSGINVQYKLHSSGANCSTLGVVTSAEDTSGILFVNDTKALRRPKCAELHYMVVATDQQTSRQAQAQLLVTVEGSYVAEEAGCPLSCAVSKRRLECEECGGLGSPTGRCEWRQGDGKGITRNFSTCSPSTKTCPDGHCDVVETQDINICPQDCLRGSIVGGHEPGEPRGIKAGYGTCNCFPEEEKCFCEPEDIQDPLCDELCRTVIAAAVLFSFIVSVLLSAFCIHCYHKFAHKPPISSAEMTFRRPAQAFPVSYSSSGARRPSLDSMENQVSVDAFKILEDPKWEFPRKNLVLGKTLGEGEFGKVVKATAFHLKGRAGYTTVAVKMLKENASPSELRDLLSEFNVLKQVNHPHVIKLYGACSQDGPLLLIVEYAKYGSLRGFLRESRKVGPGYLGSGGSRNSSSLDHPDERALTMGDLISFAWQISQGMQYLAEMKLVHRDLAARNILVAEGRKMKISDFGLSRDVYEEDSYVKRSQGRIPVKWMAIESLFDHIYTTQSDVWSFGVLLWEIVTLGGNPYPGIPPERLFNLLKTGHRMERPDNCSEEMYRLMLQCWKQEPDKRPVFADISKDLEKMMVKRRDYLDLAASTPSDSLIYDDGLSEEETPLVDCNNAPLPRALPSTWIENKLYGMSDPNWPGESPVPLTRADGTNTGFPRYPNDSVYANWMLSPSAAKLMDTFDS
Serine/threonine-protein kinase 3, sequence (Q13188 whole entry): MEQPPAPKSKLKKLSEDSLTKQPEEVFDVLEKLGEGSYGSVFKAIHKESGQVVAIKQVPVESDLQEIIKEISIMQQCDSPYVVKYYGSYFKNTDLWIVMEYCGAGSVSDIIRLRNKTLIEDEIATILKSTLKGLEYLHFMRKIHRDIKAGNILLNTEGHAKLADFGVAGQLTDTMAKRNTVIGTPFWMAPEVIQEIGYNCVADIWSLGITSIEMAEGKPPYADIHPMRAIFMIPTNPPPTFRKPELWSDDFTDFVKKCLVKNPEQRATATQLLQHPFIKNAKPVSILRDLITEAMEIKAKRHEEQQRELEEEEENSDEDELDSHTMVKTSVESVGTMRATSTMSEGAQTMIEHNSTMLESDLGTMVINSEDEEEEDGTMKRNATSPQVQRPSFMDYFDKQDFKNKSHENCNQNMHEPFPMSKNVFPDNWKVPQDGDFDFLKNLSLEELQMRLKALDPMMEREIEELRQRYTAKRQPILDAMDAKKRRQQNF

In general, IC50 refers to the concentration at which inhibition is half-maximal. For `C[C@H]1CC(C(=O)CC#N)[C@]12CCN(c1ncnc3[nH]ccc13)C2` (stereo partly drawn), the IC50 in experiment [1] stood at 2.6 nM.

For the compound `CCS(=O)(=O)N1CCN(c2ccc(Nc3ncc(C(N)=O)c(NC4CC4)n3)cc2)CC1` [CERDULATINIB], the IC50 is less than 1000 nM in experiment [2]; 4 nM in [3]; 4 nM in experiment [4]; greater than 4000 nM in [5]; 4 nM in experiment [6]; less than 1000 nM in experiment [7]. Besides, the IC50 in [8] is 4 nM; in experiment [9], less than 1000 nM; in experiment [10], 4 nM; in [11], 4 nM; in [12], 370 nM; in [13], 4 nM. In addition, the IC50 was less than 1000 nM in experiment [14]; less than 1000 nM in experiment [15]; 4 nM in [16]; 4 nM in experiment [17]; less than 1000 nM in experiment [18]; less than 1000 nM in experiment [19]. Besides, the IC50 in experiment [20], in experiment [21], in [22] and in experiment [23] was 4 nM in each case.

For the compound `N#CCC1CCN(c2nc(Nc3ccc(N4CCC(O)CC4)cc3)c3c(=O)[nH]ncc3n2)CC1` [GUSACITINIB], the half-inhibitory concentration (IC50) in experiment [24] came out at 46 nM; in [25] it was 8 nM; in experiment [26], 5 nM; in [27], 4 nM; in [28] it was 11 nM.

With `C1=N/C2=N/c3ccc(OCCN4CCCC4)c(c3)COC/C=C/COCc3cccc(c3)C(=C1)N2` [PACRITINIB], the Activity with BaF3 [29] is recorded as 99%; in the experiment with BaF3 [30], 42%. Further, in the experiment on MOLM-13, the inhibition in vivo at 150 mg/kg amounted to 83%.

In the case of `C=CC(=O)N1C[C@H](Nc2ncnc3[nH]ccc23)CC[C@@H]1C` [RITLECITINIB], the half-inhibitory concentration (IC50) in experiment [31] amounted to 155 nM.

Take `CN1C/C=C/CCOc2cccc(c2)-c2ccnc(n2)Nc2cccc(c2)C1` [ZOTIRACICLIB]: in the experiment with MV4-11, the inhibition in vivo at 40 mg/kg amounted to 113%.

Source of the values: ChEMBL document CHEMBL5346859, “Dual-target Janus kinase (JAK) inhibitors: Comprehensive review on the JAK-based strategies for treating solid or hematological malignancies and immune-related diseases” (Eur J Med Chem, 2022).
